Each structure is given as a SMILES string.

In the first test the test system is batrachotoxin (BTX) binding site (binding site 2) of the sodium channel. Description: Bond test on the sodium channel, binding site 2 (BTX bond), [3H]-batrachotoxinin A20 α-benzoate displacement. Conditions: rat cerebrocortex synaptosomes.
In the case of `CC(NC(=O)C1=NOC2(CCN(S(=O)(=O)c3cccs3)CC2)C1)c1cccc2c1OCCO2` (stereo not shown) [Example 84, 8-(thiophene-2-sulphonyl)-1-oxa-2,8-diaza-spiro[4,5]dec-2-ene-3-carboxylic acid [1-(2,3-dihydro-benzo[1,4]dioxin-5-yl)-ethyl]-amide], the “BTX bond, 10 μM, % inhibition” value stood at 58%.

Regarding `O=C(C1=NOC2(CCN(S(=O)(=O)c3ccc(OC(F)(F)F)cc3)CC2)C1)N1CCN(CCCc2ccccc2)CC1` [Example 176, [4-(3-phenyl-propyl)-piperazin-l-yl]-[8-(4-trifluoromethoxy-benzenesulphonyl)-1-oxa-2,8-diaza-spiro [4,5]dec-2-en-3-yl]-methanone], the “BTX bond, 10 μM, % inhibition” value turned out to be 76%.

For `O=C(NCc1cccc(F)c1)C1=NOC2(CCN(S(=O)(=O)c3cccs3)CC2)C1` [Example 24, 8-(thiophene-2-sulphonyl)-1-oxa-2,8-diaza-spiro[4,5]dec-2-ene-3-carboxylic acid 3-fluorobenzylamide], the “BTX bond, 10 μM, % inhibition” value was 41%.

On to `CC(C)CC(NC(=O)C1=NOC2(CCN(S(=O)(=O)c3cccc(C(F)(F)F)c3)CC2)C1)C(=O)OC(C)(C)C` (stereo not shown) [Example 214, 4-methyl-2-{[8-(3-trifluoromethyl-benzenesulphonyl)-1-oxa-2,8-diaza-spiro[4,5]dec-2-ene-3-carbonyl]-amino}-pentanoic acid tert-butyl ester], for which the “BTX bond, 10 μM, % inhibition” value is given as 61%.

For the compound `CCOP(=O)(Cc1ccc(NC(=O)C2=NOC3(CCN(S(=O)(=O)Cc4ccccc4)CC3)C2)cc1)OCC` [Example 2], the “BTX bond, 10 μM, % inhibition” value is recorded as 55%.

Take `O=C(NCC1COc2ccccc2O1)C1=NOC2(CCN(S(=O)(=O)c3cccs3)CC2)C1` (stereo not shown) [Example 21, 8-(thiophene-2-sulphonyl)-1-oxa-2,8-diaza-spiro[4,5]dec-2-ene-3-carboxylic acid (2,3-dihydro-benzo[1,4]dioxin-2-ylmethyl)-amide]: the “BTX bond, 10 μM, % inhibition” value came to 63%.

On to `O=C(NCc1ccccc1)C1=NOC2(CCN(C(=O)c3ccc(F)c(Cl)c3)CC2)C1` [Example 205, 8-(3-chloro-4-fluorobenzoyl)-1-oxa-2,8-diaza-spiro[4,5]dec-2-ene-3-carboxylic acid benzylamide], for which the “BTX bond, 10 μM, % inhibition” value is listed as 53%.

With `CCOC(=O)C1CCCCN1C(=O)C1=NOC2(CCN(C(=O)c3cc(C(C)(C)C)oc3C)CC2)C1` (stereo not shown) [Example 179, 1-[8-(5-tert-butyl-2-methyl-furan-3-carbonyl)-1-oxa-2,8-diaza-spiro[4,5]dec-2-ene-3-carbonyl]-piperidine-2-carboxylic acid ethyl ester], the “BTX bond, 10 μM, % inhibition” value is 55%.

With `O=C(C1=NOC2(CCN(S(=O)(=O)c3cccs3)CC2)C1)N1CCN(CCCc2ccccc2)CC1` [Example 14, [4-(3-phenyl-propyl)-piperazin-l-yl]-[8-(thiophene-2-sulphonyl)-1-oxa-2,8-diaza-spiro[4,5]dec-2-en-3-yl]-methanone], the “BTX bond, 10 μM, % inhibition” value was determined as 79%.

Turning to `CN(Cc1cccnc1)C(=O)C1=NOC2(CCN(S(=O)(=O)c3cc(Cl)ccc3Cl)CC2)C1` [Example 92, 8-(2,5-dichloro-benzenesulphonyl)-1-oxa-2,8-diaza-spiro[4,5]dec-2-ene-3-carboxylic acid methyl-pyridin-3-ylmethyl-amide], the “BTX bond, 10 μM, % inhibition” value amounted to 65%.

Turning to `COc1ccc(Br)cc1S(=O)(=O)N1CCC2(CC1)CC(C(=O)NC1CCCC1)=NO2` [Example 173, 8-(5-bromo-2-methoxy-benzenesulphonyl)-1-oxa-2,8-diaza-spiro[4,5]dec-2-ene-3-carboxylic acid cyclopentylamide], the “BTX bond, 10 μM, % inhibition” value came out at 62%.

In the case of `O=C(Cc1ccc(F)c(F)c1)N1CCN(C(=O)C2=NOC3(CCN(S(=O)(=O)c4cccc(C(F)(F)F)c4)CC3)C2)CC1` [Example 93], the “BTX bond, 10 μM, % inhibition” value was 52%.

Regarding `O=C(NCc1cccs1)C1=NOC2(CCN(C(=O)c3cccc(Cl)c3F)CC2)C1` [Example 146, 8-(3-chloro-2-fluorobenzoyl)-1-oxa-2,8-diaza-spiro[4,5]dec-2-ene-3-carboxylic acid (thiophen-2-ylmethyl)-amide], the “BTX bond, 10 μM, % inhibition” value worked out at 67%.

As to `CCc1ccc(C(=O)N2CCC3(CC2)CC(C(=O)NCc2cccs2)=NO3)cc1` [Example 52, 8-(4-ethyl-benzoyl)-1-oxa-2,8-diaza-spiro[4,5]dec-2-ene-3-carboxylic acid (thiophen-2-ylmethyl)-amide], the “BTX bond, 10 μM, % inhibition” value is reported as 63%.

In the case of `CN(C)S(=O)(=O)N1CCC2(CC1)CC(C(=O)N1CCN(C3CCCCCC3)CC1)=NO2` [Example 144, 3-(4-cycloheptyl-piperazine-1-carbonyl)-1-oxa-2,8-diaza-spiro[4,5]dec-2-ene-8 sulphonic acid dimethylamide], the “BTX bond, 10 μM, % inhibition” value came to 53%.

Take `Cc1oc(C(C)(C)C)cc1C(=O)N1CCC2(CC1)CC(C(=O)NC1CCCC1)=NO2` [Example 126, 8-(5-tert-butyl-2-methyl-furan-3-carbonyl)-1-oxa-2,8-diaza-spiro[4,5]dec-2-ene-3-carboxylic acid cyclopentylamide]: the “BTX bond, 10 μM, % inhibition” value is listed as 56%.

As to `Cc1ccc(F)c(C(=O)N2CCC3(CC2)CC(C(=O)NCc2cccs2)=NO3)c1F` [Example 170, 8-(2,6-difluoro-3-methyl-benzoyl)-1-oxa-2,8-diaza-spiro[4,5]dec-2-ene-3-carboxylic acid (thiophen-2-ylmethyl)-amide], the “BTX bond, 10 μM, % inhibition” value came to 59%.

Consider `O=C(NCc1cccs1)C1=NOC2(CCN(C(=O)CCCOc3ccccc3)CC2)C1` [Example 183], for which the “BTX bond, 10 μM, % inhibition” value is 68%.

Take `CCOC(=O)N1CCC(NC(=O)C2=NOC3(CCN(C(=O)C4CC4c4ccccc4)CC3)C2)CC1` (stereo not shown) [Example 55, 4-{[8-(2-phenyl-cyclopropanecarbonyl)-1-oxa-2,8-diaza-spiro[4,5]dec-2-ene-3-carbonyl]-amino}-piperidine-1-carboxylic acid ethyl ester]: the “BTX bond, 10 μM, % inhibition” value is reported as 47%.

As to `COC(=O)C(Cc1c[nH]c2ccccc12)NC(=O)C1=NOC2(CCN(S(=O)(=O)c3ccc(OC(F)(F)F)cc3)CC2)C1` (stereo not shown) [Example 1, 3-(1H-indo1-3-yl)-2-{[8-(4-trifluoromethoxy-benzene-sulphonyl)-1-oxa-2,8-diaza-spiro[4,5]dec-2-ene-3-carbonyl]-amino}-propionic acid methyl ester], the “BTX bond, 10 μM, % inhibition” value came to 68%.

Turning to `COc1cccc(CCNC(=O)C2=NOC3(CCN(S(=O)(=O)c4ccc(F)cc4)CC3)C2)c1` [Example 124, 8-(4-fluoro-benzenesulphonyl)-1-oxa-2,8-diaza-spiro[4,5]dec-2-ene-3-carboxylic acid [2-(3-methoxy-phenyl)-ethyl]-amide], the “BTX bond, 10 μM, % inhibition” value amounted to 54%.

Turning to `O=C(NCc1cccs1)C1=NOC2(CCN(S(=O)(=O)c3ccc(Cl)cc3)CC2)C1` [Example 127, 8-(4-chloro-benzenesulphonyl)-1-oxa-2,8-diaza-spiro[4,5]dec-2-ene-3-carboxylic acid (thiophen-2-ylmethyl)-amide], the “BTX bond, 10 μM, % inhibition” value is given as 70%.

Regarding `COc1cccc(CN2CCC(NC(=O)C3=NOC4(CCN(S(=O)(=O)c5cc(Cl)ccc5Cl)CC4)C3)C2)c1` (stereo not shown) [Example 64], the “BTX bond, 10 μM, % inhibition” value was found to be 91%.

`CC1CCCCN1CCCNC(=O)C1=NOC2(CCN(S(=O)(=O)c3cc(Cl)ccc3Cl)CC2)C1` (stereo not shown) [Example 15, 8-(2,5-dichloro-benzenesulphonyl)-1-oxa-2,8-diaza-spiro[4,5]dec-2-ene-3-carboxylic acid[3-(2-methyl-piperidin-1-yl)-propyl]-amide]: the “BTX bond, 10 μM, % inhibition” value turned out to be 88%.

Regarding `COc1ccc(S(=O)(=O)N2CCC3(CC2)CC(C(=O)NC(C)Cc2ccc(Cl)cc2)=NO3)cc1` (stereo not shown) [Example 164, 8-(4-methoxy-benzenesulphonyl)-1-oxa-2,8-diaza-spiro[4,5]dec-2-ene-3-carboxylic acid [2-(4-chloro-phenyl)-1-methyl-ethyl]-amide], the “BTX bond, 10 μM, % inhibition” value is 52%.

For `Cc1ccc(F)cc1S(=O)(=O)N1CCC2(CC1)CC(C(=O)NCCN(C)C)=NO2` [Example 37, 8-(5-fluoro-2-methyl-benzenesulphonyl)-1-oxa-2,8-diaza-spiro[4,5]dec-2-ene-3-carboxylic acid (2-dimethylamino-ethyl)-amide], the “BTX bond, 10 μM, % inhibition” value is 70%.

As to `Cc1onc(-c2c(F)cccc2Cl)c1C(=O)N1CCC2(CC1)CC(C(=O)NCc1ccccc1)=NO2` [Example 177, 8-[3-(2-chloro-6-fluorophenyl)-5-methyl-isoxazole-4-carbonyl]-1-oxa-2,8-diaza-spiro [4,5]dec-2-ene-3-carboxylic acid benzylamide], the “BTX bond, 10 μM, % inhibition” value is recorded as 45%.

Consider `O=C(C1=NOC2(CCN(S(=O)(=O)Cc3ccccc3)CC2)C1)N1CCN(Cc2ccc3ccccc3c2)CC1` [Example 6, (4-naphthalen-2-ylmethyl-piperazin-l-yl)-(8-phenylmethane-sulphonyl-1-oxa-2,8 diaza-spiro[4,5]dec-2-en-3-yl)-methanone], for which the “BTX bond, 10 μM, % inhibition” value is 49%.

Consider `O=C(C1=NOC2(CCN(S(=O)(=O)c3cccc(C(F)(F)F)c3)CC2)C1)N1CCC(Cc2ccccc2)CC1` [Example 211, (4-benzyl-piperidin-l-yl)-[8-(3-trifluoromethyl-benzene-sulphonyl)-1-oxa-2,8-diaza-spiro[4,5]dec-2-en-3-yl]-methanone], for which the “BTX bond, 10 μM, % inhibition” value is listed as 48%.

The same test, now with this note: rat cerebrocortex synaptosomes, 10 µM.
For the compound `Cc1ccc(S(=O)(=O)N2CCC3(CC2)CC(C(=O)NC2CCCC2OCc2ccccc2)=NO3)cc1` (stereo not shown) [Example 73, 8-(toluene-4-sulphonyl)-1-oxa-2,8-diaza-spiro[4,5]dec-2-ene-3-carboxylic acid (2-benzyloxy-cyclopentyl)-amide], the “BTX bond, 10 μM, % inhibition” value is 75%.

Consider `COc1ccc(S(=O)(=O)N2CCC3(CC2)CC(C(=O)NC2CCCC2OCc2ccccc2)=NO3)cc1` (stereo not shown) [Example 121, 8-(4-methoxy-benzenesulphonyl)-1-oxa-2,8-diaza-spiro[4,5]dec-2-ene-3-carboxylic acid (2-benzyloxy-cyclopentyl)-amide], for which the “BTX bond, 10 μM, % inhibition” value turned out to be 42%.

For the origin of these results see patent publication US8557796B2, “Substituted 1-oxa-2,8-diaza-spiro [4,5] dec-2-ene derivatives and related treatment methods” (Gruenenthal GmbH, priority 2001, dated 2013).
